Measurements published in patent US20090029355A1, “Abnormalities of Phosphatase 2A (PP2A) for Diagnosis and Treatment of Alzheimer's Disease” (priority 2004, published 2009).
Entries after “also recorded” stand apart in the source; their conditions may differ.

Assays:
[1] = test system: Erk1/2 phosphorylation in AC cells; experiment: Erk1/2 phosphorylation on Western blots in AC fibroblasts; format: cell-based, human; settings: about 10 nM OA, about 10 nM BK, about 10 min
Protocol: (§1) After serum-starving overnight, cells are treated as such: 1) BK treatment for about 10 min, 2) pretreatment with about 10 nM OA for about 15 min followed by BK treatment and another dose of OA for about 10 min. Reactions are terminated, cells are lysed in a lysis buffer, and the extent of Erk1/2 phosphorylation and levels of the total Erk1/2 are determined using Western blots. After normalizing with signals of the total Erk1/2, the ratio of BK-stimulated Erk1/2 phosphorylation in the presence and absence of OA is calculated. […]
(§2) Erk1/2 phosphorylation from different treatments was determined on Western blots using an anti-phospho-Erk1/2 antibody (Cell Signaling Technology), the total amount of Erk1/2 protein loaded on the SDS gel was determined by an anti-regular Erk1/2 antibody (Upstate Biotechnology), and was used to normalize the detected phospho-Erk1/2 signals.
(§3) (1) Quantitative PCR values for PP2A mRNA in each sample of 19 AC and 19 AD cell lines were normalized by those of GPDH in the same sample. […] The densitometric values for PP2A were normalized by those of annexin 11 and quantified with UN-SCAN-IT software (Silk Scientific, Inc.) (3) To assess Erk1/2 phosphorylation, ratios for phospho-Erk1/2 over those of the total Erk1/2 were calculated. […]

[2] = test system: Erk1/2 phosphorylation in AD cells; experiment: Erk1/2 phosphorylation on Western blots in AD fibroblasts; format: cell-based, human; settings: about 10 nM OA, about 10 nM BK, about 10 min
Protocol: as §1, §2, §3

C=C1[C@@H](O)[C@@H]2O[C@]3(CC[C@H](/C=C/[C@@H](C)[C@@H]4CC(C)=C[C@@]5(O[C@H](C[C@@](C)(O)C(=O)O)CC[C@H]5O)O4)O3)CC[C@H]2O[C@@H]1[C@@H](O)C[C@H](C)[C@H]1O[C@@]2(CCCCO2)CC[C@H]1C [OA, okadiac acid]
Erk1/2 dephosphorylation after BK stimulation in the presence of OA [1]: inhibited Erk1/2 dephosphorylation; also recorded: significantly inhibited
BK-stimulated Erk1/2 phosphorylation on addition of OA [2]: did not further increase Erk1/2 phosphorylation
